In brackets after ≈: the same amount, converted by molar mass. Numbered stars: 1 amine (or outer) side, 2 acyl side, 3 side chain; on linkers, the order of the positions; unused ones are H or OH. Bridge positions count the residues as written; N and C are the ends. Square brackets hold non-standard residues; d marks the D form. Peptide text beside a SMILES is read from it. * marks the point of attachment. Hpg(αMan(1-2)αMan) = N[C@H](C(=O)O)c1ccc(O[C@H]2O[C@H](CO)[C@@H](O)[C@H](O)[C@@H]2O[C@H]2O[C@H](CO)[C@@H](O)[C@H](O)[C@@H]2O)cc1; Octa(2Z,4E)dienoyl(7-Me) = CC(C)C/C=C/C=C\C(=O)*; X1 = NC(=O)[C@@H](O[*:3])[C@H](N[*:1])C(=O)[*:2]; X3 = O=C([C@@H](N[*:1])c1cc(O)cc(O)c1)[*:2]; Hpg(3-Cl) = N[C@H](C(=O)O)c1ccc(O)c(Cl)c1; d(aThr) = C[C@@H](O)[C@@H](N)C(=O)O; dHpg = N[C@@H](C(=O)O)c1ccc(O)cc1; Hpg = N[C@H](C(=O)O)c1ccc(O)cc1; aThr = C[C@H](O)[C@H](N)C(=O)O; dOrn = NCCC[C@@H](N)C(=O)O; X2 = CC(C)CCCCCCC(=O)*

In one series the test system is Gram-positive strains. Nature of the series: Broth microdilution, Gram-positive strains overall. It counts as cell-based. Conditions: Gram-positive strains B. subtilis ATCC 6051, S. aureus ATCC 25923, E. faecalis ATCC 29212. As to the method: (§1) Assessment of antimicrobial activity of chersinamycin: Chersinamycin was examined for its ability to inhibit bacterial growth by broth microdilution assays against Gram-positive strains B. subtilis ATCC 6051, S. aureus ATCC 25923, and E. faecalis ATCC 29212 and Gram-negative strain E. coli ATCC 25922.
(§2) Minimal inhibitory assays. Antibacterial activity of chersinamycin and positive controls (vancomycin, ampicillin, and ramoplanin A2) were determined by the broth microdilution assay method. Briefly, bacterial strains were grown in cation-adjusted Mueller-Hinton broth. A microtiter plate was prepared by coating wells in 0.2% BSA, and antimicrobial peptides were added with 2-fold dilution steps ranging from 64-0.125 μg mL^−1. Bacteria was added to a final concentration of 10^5 colony forming units and final volume of 100 μL. Plates were incubated at 37° C. for 24 hours, and the MIC was read as the lowest peptide concentration for which no bacterial growth was visualized. Reported values are the average of two replicates.
On the technique in general: In broth dilution the organism is exposed to a series of concentrations in liquid medium.

The next series has as its system E. coli ATCC 25922. The method, then:
as §1, §2

For series [1] the following is noted: 1% triethylamine in water, room temperature.
Excerpt: Macrolactone selective hydrolysis. […] The solution was allowed to sit at room temperature for one hour, and then analyzed by MALDI-TOF. After determining that the reaction had gone to completion by complete consumption of the starting material, the reaction mixture was dried and reconstituted in a water/acetonitrile mixture for further MS/MS analyses.
Series [2] concerns vancomycin-susceptible and vancomycin-resistant C. difficile strains. The note with it: cited from earlier work.
For series [3] the following is noted: cited from earlier work.
For series [4] the following is noted: administered by intraperitoneal injection; cited from earlier work.
Another series has as its system B. subtilis ATCC 6051. The note with it: ATCC 6051, 24 h. As to the method:
as §1, §2

In another series the test system is E. faecalis ATCC 29212. The note with it: ATCC 29212, 24 h. As to the method:
as §1, §2

In the next series the test system is S. aureus ATCC 25923. The note with it: ATCC 25923, 24 h. The method, then:
as §1, §2

For series [5] the following is noted: delivered intravenously; cited from earlier work.
The subject of series [6] is Gram-positive bacterial infections. The note with it: cited from earlier work.
For series [7] the following is noted: Boger alanine scan comparators; cited from earlier work.

As for `CC(C)CCCCCCC(=O)N[C@@H](CC(N)=O)C(=O)N[C@@H]1C(=O)N[C@H](c2ccc(O)cc2)C(=O)N[C@H](CCCN)C(=O)N[C@H]([C@@H](C)O)C(=O)N[C@@H](c2ccc(O)cc2)C(=O)N[C@H](c2ccc(O)cc2)C(=O)N[C@@H]([C@H](C)O)C(=O)N[C@@H](Cc2ccccc2)C(=O)N[C@H](CCCN)C(=O)N[C@@H](c2ccc(O[C@H]3O[C@H](CO)[C@@H](O)[C@H](O)[C@@H]3O[C@H]3O[C@H](CO)[C@@H](O)[C@H](O)[C@@H]3O)cc2)C(=O)N[C@H]([C@@H](C)O)C(=O)N[C@@H](c2cc(O)cc(O)c2)C(=O)NCC(=O)N[C@@H](C(C)C)C(=O)N[C@H](C)C(=O)N[C@@H](c2ccc(O)c(Cl)c2)C(=O)O[C@@H]1C(N)=O` [Chersinamycin, chersinamycin] (X2-N[X1][dHpg][dOrn][d(aThr)][Hpg][dHpg][aThr]F[dOrn][Hpg(αMan(1-2)αMan)][d(aThr)][X3]GV[dA][Hpg(3-Cl)]; ester 2-C; N-terminus assumed), the “ability to inhibit bacterial growth, in words” value in the series with Gram-positive strains is “potent antimicrobial activity”; with E. coli ATCC 25922 (Gram-negative strain E. coli ATCC 25922), “ineffective”. For the same compound, the “stability of peptide macrocycle to base” value in series [1] is listed as “highly base labile”.
For the compound `CC(C)C/C=C/C=C\C(=O)N[C@@H](CC(N)=O)C(=O)N[C@@H]1C(=O)N[C@H](c2ccc(O)cc2)C(=O)N[C@H](CCCN)C(=O)N[C@H]([C@@H](C)O)C(=O)N[C@@H](c2ccc(O)cc2)C(=O)N[C@H](c2ccc(O)cc2)C(=O)N[C@@H]([C@H](C)O)C(=O)N[C@@H](Cc2ccccc2)C(=O)N[C@H](CCCN)C(=O)N[C@@H](c2ccc(O[C@H]3O[C@H](CO)[C@@H](O)[C@H](O)[C@@H]3O[C@H]3O[C@H](CO)[C@@H](O)[C@H](O)[C@@H]3O)cc2)C(=O)N[C@H]([C@@H](C)O)C(=O)N[C@@H](c2ccc(O)cc2)C(=O)NCC(=O)N[C@@H](CC(C)C)C(=O)N[C@H](C)C(=O)N[C@@H](c2ccc(O)c(Cl)c2)C(=O)O[C@@H]1C(N)=O` [Ramoplanin, ramoplanin A2] ({Octa(2Z,4E)dienoyl(7-Me)}-N[X1][dHpg][dOrn][d(aThr)][Hpg][dHpg][aThr]F[dOrn][Hpg(αMan(1-2)αMan)][d(aThr)][Hpg]GL[dA][Hpg(3-Cl)]; ester 2-C), the “MICs in vitro against C. difficile” value in series [2] was 0.25 to 0.50 µg/mL. Besides, the oral absorption result in series [3] (in vivo, po) is listed as “not orally absorbed”. In addition, the colonic concentrations in series [3] (oral delivery) is greater than 300 µg/mL. For the same compound, the stability of macrolactone entry in series [4] is on record as “susceptible to hydrolysis”. For the same compound, the MIC is less than 0.125 µg/mL with B. subtilis ATCC 6051; 0.5 µg/mL (≈ 0.196 µM) against E. faecalis ATCC 29212; greater than 64 µg/mL in the series with E. coli ATCC 25922 (ATCC 25922, 24 h); 0.5 µg/mL (≈ 0.196 µM) in the series on S. aureus ATCC 25923. The hemolysis result in [5] is reported as “mild to moderately hemolytic”. Besides, the MICs in vitro in series [6] was 0.125 to 2 µg/mL.
Regarding “[Dap2]-ramoplanin A2 aglycon [[Dap2]-ramoplanin aglycon]”, the MIC in series [7] was 0.07 µg/mL.
ramoplanin A2 aglycon: in series [7], the MIC was 0.11 µg/mL.

In general, MIC refers to the lowest concentration that inhibits growth of the organism.

These data come from US20230181684A1, “NOVEL ANTIBIOTIC COMPOSITIONS AND METHODS OF MAKING OR USING THE SAME” (priority 2020, published 2023).
